Entries after “also recorded” stand apart in the source; their conditions may differ.
How the values were obtained:
[1] = tested on: BALB/c mice, Af-induced allergic airway inflammation and hyperresponsiveness; experiment: Murine Aspergillus fumigatus (Af)-induced asthma model, methacholine-induced lung resistance / airway hyperresponsiveness; type: in vivo, mouse
Description: (§1) The following experiments were designed to test the efficacy of the compounds of the invention on a murine asthma model. A murine model of Aspergillus fumigatus (Af)-induced allergic airway inflammation and hyperresponsiveness was adapted from Haczku et al. (2001 Am. J. Respir. Cell Mol. Biol. 25: 45-50) to determine the activity of the candicate compounds (FIG. 2).
Briefly, BALB/c mice were sensitized intraperitoneally and challenged intranasally with Af extract as a form of a type of allergen challenge in the presence or absence of dexamethasone. With respect to sensitization, “naïve” mice received intranasal vehicle challenges only, with phosphate-buffered saline (PBS) where as “sensitized’ mice were injected intraperitoneally with 25 μg Af together with alum in 100 μl of PBS on days 1 and 14, followed by intranasal challenge on days 25, 26, and 27 with 25 μg of Af extract in 40 PBS μl in the presence or absence of dexamethasone (2.5 mg/kg in 100 μl saline). On day 28, sensitized mice were treated with the test compound (0.1, 1.0, 10 mg/kg) either one hour before or simultaneously with methacholine challenge (2.5, 5, 10, 20 mg/mL). Methacholine challenge is to induce airway constriction.
as §1, with “eradicate” for “candicate”, “11).” for “2).”
Briefly, BALB/c mice were sensitized intraperitoneally and challenged intranasally with Af extract as a form of a type of allergen challenge in the presence or absence of dexamethasone. With respect to sensitization, “naïve” mice received intranasal vehicle challenges only, with phosphate-buffered saline (PBS) where as “sensitized’ mice were injected intraperitoneally with 25 μg Af together with alum in 100 μl of PBS on days 1 and 14, followed by intranasal challenge on days 25, 26, and 27 with 25 μg of Af extract in 40 PBS μl in the presence or absence of dexamethasone (2.5 mg/kg in 100 μl saline) in combination with either o.g. treatment with ICI-735 (1 mg/kg or 10 mg/kg) or i.p. treatment with ICI-735 1 mg/kg. On day 28, sensitized mice were treated with methacholine challenge (2.5, 5, 10, 20 mg/mL). Methacholine challenge is to induce airway constriction.
With respect to the murine model of allergen induced AHR, BALB/c mice were sensitized and challenged via intranasal instillation of Aspergillus fumigatus (Af). […] Four hours after the last allergen challenge, airway function was assessed by flexivent. […]

[2] = Pharmacokinetics, plasma levels in mice; type: in vivo, mouse
Procedure: Mice were treated with either 1.0 mg/kg or 10 mg/kg of ICI-735 by way of intraperitoneal administration. The plasma levels of ICI-735 were measured at baseline and various time points following administration (FIG. 6). […] Without wishing to be bound by any particular theory, it is believed that the effectiveness of ICI-735 to treat asthma can be achieved with a low dose (e.g, 1.0 mg/kg dose).
Mice were also treated with either 2.5 mg/kg intravenously or 5 mg/kg orally of ICI-735. The plasma levels of ICI-735 were measured at baseline and various time points following administration (FIG. 7). […] It was determined that oral bioavailability was approximately 20%. Therefore, it is believed that ICI-735 administration orally at approximately 1 mg/kg/day is effective at reducing lung resistence in patients with asthma.

hCav1.2 = hCav1.2 (Homo sapiens, UniProt Q13936); experiment: Cardiac ion channels expressed in mammalian cells; type: cell-based; conditions: 0.1 μM, 1 μm, 10 μm, and 100 μm
Description: Opening of voltage-gated calcium channels results in influx of calcium ions into the cell. This influx of calcium plays an important role in excitation-contraction coupling in cardiac and skeletal muscle fibers. The reversal potential for calcium is extremely positive, so calcium current is almost always inward, resulting in an action potential plateau in many excitable cells. These channels are the target of calcium channel blocker subtype of antihypertensive drugs. The alpha-1 subunit forms the ion conducting pore, with several modulating auxiliary subunits. Major subtypes of voltage-gated calcium channels include L-type (Cav1.1, Cav1.2, Cav1.3, Cav1.4), T-type (Cav3.1, Cav3.2, Cav3.3), N-type (Cav2.2), P-type (Cav2.1), and R-type (Cav2.3).
Mammalian cells were treated with ICI-735 (0.1 μM, 1 μm, 10 μm, and 100 μm) to determine whether ICI-735 blocked the expression of cardiac ion channels. It was observed that ICI-735 was able to block the expression of both hERG and hCav1.2). Without wishing to be bound by any particular theory, it is believed that the blocks in hERG and calcium channels may cancel one another physiologically, but sodium channel effect may lead to changes in membrane potential.

Nav1.5 = Nav1.5 (Homo sapiens, UniProt Q14524); experiment: Effects on action potential in a mammalian cell, sodium channel block; type: cell-based
Sequence of Nav1.5 (Q14524 whole entry): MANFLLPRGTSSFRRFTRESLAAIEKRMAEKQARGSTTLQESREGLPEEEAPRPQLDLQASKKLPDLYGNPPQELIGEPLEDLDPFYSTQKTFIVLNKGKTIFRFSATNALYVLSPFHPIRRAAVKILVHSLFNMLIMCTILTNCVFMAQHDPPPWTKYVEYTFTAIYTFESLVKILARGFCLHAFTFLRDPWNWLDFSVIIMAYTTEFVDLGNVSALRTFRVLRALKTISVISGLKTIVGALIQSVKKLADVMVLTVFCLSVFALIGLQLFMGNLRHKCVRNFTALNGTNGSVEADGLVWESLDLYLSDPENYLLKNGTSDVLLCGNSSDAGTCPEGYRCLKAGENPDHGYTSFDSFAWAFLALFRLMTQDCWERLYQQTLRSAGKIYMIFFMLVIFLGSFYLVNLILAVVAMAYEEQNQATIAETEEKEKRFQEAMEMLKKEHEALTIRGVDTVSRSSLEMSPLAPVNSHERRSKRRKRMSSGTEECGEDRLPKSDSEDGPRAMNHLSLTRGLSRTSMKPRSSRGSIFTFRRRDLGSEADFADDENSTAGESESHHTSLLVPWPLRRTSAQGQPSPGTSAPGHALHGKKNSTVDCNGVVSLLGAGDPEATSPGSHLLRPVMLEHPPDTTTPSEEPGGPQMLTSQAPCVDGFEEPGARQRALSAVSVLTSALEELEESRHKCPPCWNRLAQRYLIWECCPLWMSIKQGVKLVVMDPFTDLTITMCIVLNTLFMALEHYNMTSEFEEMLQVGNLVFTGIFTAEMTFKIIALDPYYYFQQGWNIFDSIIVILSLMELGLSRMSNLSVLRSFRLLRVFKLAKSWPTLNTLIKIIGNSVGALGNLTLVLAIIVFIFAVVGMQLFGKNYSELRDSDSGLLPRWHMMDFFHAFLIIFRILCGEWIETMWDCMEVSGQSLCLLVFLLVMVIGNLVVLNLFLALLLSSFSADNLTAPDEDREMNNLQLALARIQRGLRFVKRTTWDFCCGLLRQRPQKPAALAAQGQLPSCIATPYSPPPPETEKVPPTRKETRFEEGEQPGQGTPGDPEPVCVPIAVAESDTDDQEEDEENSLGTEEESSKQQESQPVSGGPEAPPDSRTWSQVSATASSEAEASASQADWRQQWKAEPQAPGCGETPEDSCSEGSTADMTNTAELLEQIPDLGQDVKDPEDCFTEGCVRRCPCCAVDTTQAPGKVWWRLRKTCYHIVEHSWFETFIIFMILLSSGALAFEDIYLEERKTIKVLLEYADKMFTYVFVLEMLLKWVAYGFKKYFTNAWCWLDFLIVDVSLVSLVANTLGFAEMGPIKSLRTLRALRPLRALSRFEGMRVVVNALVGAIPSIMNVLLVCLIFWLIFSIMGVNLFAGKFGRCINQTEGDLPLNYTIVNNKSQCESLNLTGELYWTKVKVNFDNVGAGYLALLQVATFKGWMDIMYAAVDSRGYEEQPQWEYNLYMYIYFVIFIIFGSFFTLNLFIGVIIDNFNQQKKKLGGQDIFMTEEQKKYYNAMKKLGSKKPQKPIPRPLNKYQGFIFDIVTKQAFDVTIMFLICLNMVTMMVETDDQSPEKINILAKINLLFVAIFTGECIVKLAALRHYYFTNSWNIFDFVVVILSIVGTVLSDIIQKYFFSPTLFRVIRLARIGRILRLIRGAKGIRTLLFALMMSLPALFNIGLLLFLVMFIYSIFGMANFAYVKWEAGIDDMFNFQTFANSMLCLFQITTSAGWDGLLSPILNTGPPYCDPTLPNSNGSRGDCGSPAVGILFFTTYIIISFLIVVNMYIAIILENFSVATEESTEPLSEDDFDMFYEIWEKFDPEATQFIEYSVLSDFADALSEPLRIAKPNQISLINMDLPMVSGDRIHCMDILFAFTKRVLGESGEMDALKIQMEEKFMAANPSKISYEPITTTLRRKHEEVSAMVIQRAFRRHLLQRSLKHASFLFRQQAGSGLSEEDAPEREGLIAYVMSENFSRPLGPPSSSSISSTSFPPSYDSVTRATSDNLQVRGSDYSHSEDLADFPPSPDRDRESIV
Description: Voltage-gated sodium channels are responsible for the initial phase of the action potential, which is a wave of electrical depolarisation usually initiated at the soma of the neuron and propagated along the nerve axon to the terminals. At the terminals, the action potential triggers the influx of calcium and the release of neurotransmitter. The voltage-gated sodium channel family is made up of four brain specific subtypes, Nav1.1, 1.2, 1.3 and 1.6; as well as Nav1.4, which is found on skeletal muscle; Nav1.5, which is found on cardiac muscle; and Nav1.7, 1.8, 1.9, are found predominantly on sensory neurons.
The effects of ICI-735 on action potential in a mammalian cell was tested. Briefly, it was observed that ICI-735 was able to block Nav1.5.

AdrR2 receptor = experiment: Receptor binding
muscarinic receptor M3 = muscarinic receptor M3 (Homo sapiens, UniProt P20309); experiment: Receptor binding
Sequence of muscarinic receptor M3 (P20309 whole entry): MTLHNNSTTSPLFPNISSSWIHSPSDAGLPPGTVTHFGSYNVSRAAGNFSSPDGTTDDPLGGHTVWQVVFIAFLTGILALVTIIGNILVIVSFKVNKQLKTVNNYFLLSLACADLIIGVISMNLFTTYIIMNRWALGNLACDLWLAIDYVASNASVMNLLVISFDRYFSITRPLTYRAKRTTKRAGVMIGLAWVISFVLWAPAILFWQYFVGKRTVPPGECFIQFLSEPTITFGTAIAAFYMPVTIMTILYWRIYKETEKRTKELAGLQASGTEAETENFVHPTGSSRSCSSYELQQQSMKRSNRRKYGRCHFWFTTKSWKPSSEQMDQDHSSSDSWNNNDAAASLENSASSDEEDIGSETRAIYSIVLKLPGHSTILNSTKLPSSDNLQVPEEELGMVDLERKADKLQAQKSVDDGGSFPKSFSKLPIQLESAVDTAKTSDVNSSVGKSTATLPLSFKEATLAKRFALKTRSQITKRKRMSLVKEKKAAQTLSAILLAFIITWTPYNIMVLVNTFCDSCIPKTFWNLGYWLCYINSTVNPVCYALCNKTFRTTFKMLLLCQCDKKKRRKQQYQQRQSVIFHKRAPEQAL

NCC(=O)NCCN1CCN(CCCN2c3ccccc3Sc3ccc(C(F)(F)F)cc32)CC1 [ICI-735]
AHR in Af sensitized mice ([1]; i.p. 1 mg/ml two hours prior to each intranasal challenge, flexivent four hours after last challenge): significantly inhibited | decrease of lung resistance / airway hyper-responsiveness to methacholine ([1]; intraperitoneal, from 0.1 mg/kg, one hour before or with methacholine challenge, compared with dexamethasone 2.5 mg/kg): at least as effective as 2.5 mg/kg dexamethasone; also recorded: decreased airway hyperresponsiveness | effect on naive animal airway contraction ([1]; naive mice): no effect | decrease of lung resistance / airway hyper-responsiveness to methacholine ([1]; oral (o.g.), 1 mg/kg or 10 mg/kg): effective at decreasing lung resistance | plasma levels after oral 5 mg/kg dose versus intravenous 2.5 mg/kg dose [2]: comparable | plasma levels after 1.0 mg/kg dose versus 10 mg/kg dose ([2]; intraperitoneal): comparable | bioavailability ([2]; mouse, plasma, oral, 5 mg/kg orally vs 2.5 mg/kg intravenously): ~20% | block of hCav1.2 (hCav1.2): able to block | IC50 (Nav1.5): 8.33 µM | block of Nav1.5 (Nav1.5): able to block | binding to AdrR2 receptor (AdrR2 receptor): does not bind; also recorded: weak or undetectable | binding to muscarinic receptor M3 (muscarinic receptor M3): weak binding; also recorded: weak or undetectable

— patent US20100130457A1, “Phenothiazine Derivatives for Treatment of Asthma” (Immune Control, Inc., priority 2008, published 2010)
